Measured values reported in publication PMC5452050 (ACS Omega, 2017).
Where a chain is given by its changes, count along the chain named. ≈ marks a conversion by molar mass, not a printed value. One block for each compound: values may come before it.

Assays:
[1] = target: T1, FLT3 (ITD, D835V) (Homo sapiens, UniProt P36888, D835V/ITD); assay: Kd determination; type: binding
T1 sequence (P36888 564-993 D835V): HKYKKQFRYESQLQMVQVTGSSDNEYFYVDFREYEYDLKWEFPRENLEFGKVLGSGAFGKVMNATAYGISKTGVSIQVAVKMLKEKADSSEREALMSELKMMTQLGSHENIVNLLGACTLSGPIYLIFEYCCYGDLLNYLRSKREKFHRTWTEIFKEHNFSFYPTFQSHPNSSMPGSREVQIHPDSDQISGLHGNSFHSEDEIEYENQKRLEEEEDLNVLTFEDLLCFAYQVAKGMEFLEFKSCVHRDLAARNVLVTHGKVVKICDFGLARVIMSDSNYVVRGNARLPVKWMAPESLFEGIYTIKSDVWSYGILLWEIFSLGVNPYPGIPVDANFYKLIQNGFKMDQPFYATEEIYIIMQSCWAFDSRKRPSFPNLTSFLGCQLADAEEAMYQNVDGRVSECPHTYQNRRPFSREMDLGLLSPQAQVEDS

[2] = Liver microsomal stability; settings: both, human, liver microsomes, pH 7.4
[3] = target: TYRO3 (Homo sapiens, UniProt Q06418); assay: Kd determination; type: binding
[4] = Solubility; type: physicochemical; settings: buffer, pH 7.4, aqueous buffer, kinetic from dmso stock
[5] = target: PIP5K1C (Homo sapiens, UniProt O60331); assay: Kd determination; type: binding
[6] = target: MERTK (Homo sapiens, UniProt Q12866); assay: Kd determination; type: binding
[7] = target: PIK4CB (Homo sapiens, UniProt Q9UBF8); assay: Kd determination; type: binding
[8] = Liver microsomal stability; settings: female, CD-1, mouse, liver microsomes, pH 7.4
[9] = target: CLK1 (Homo sapiens, UniProt P49759); assay: Kd determination; type: binding
[10] = target: LCK (Homo sapiens, UniProt P06239); assay: Kd determination; type: binding
[11] = Liver microsomal stability; settings: rat, liver microsomes, pH 7.4
[12] = target: CSF1R-autoinhibited (Homo sapiens, UniProt P07333); assay: Kd determination; type: binding
[13] = target: T2, FLT3 (ITD, F691L) (Homo sapiens, UniProt P36888, F691L/ITD); assay: Kd determination; type: binding
T2 sequence (P36888 564-993 F691L): T1 sequence (P36888 564-993 D835V) with F128L, V272D

[14] = target: PDGFRB (Homo sapiens, UniProt P09619); assay: Kd determination; type: binding
[15] = target: CLK4 (Homo sapiens, UniProt Q9HAZ1); assay: Kd determination; type: binding
[16] = target: KIT (Homo sapiens, UniProt P10721); assay: Kd determination; type: binding
[17] = target: MINK (Homo sapiens, UniProt Q8N4C8); assay: Kd determination; type: binding
[18] = target: NEK10 (Homo sapiens, UniProt Q6ZWH5); assay: Kd determination; type: binding
[19] = Liver microsomal stability; settings: dog, liver microsomes, pH 7.4
[20] = target: AURKC (Homo sapiens, UniProt Q9UQB9); assay: Kd determination; type: binding
[21] = system: FLT3-ITD phosphorylation; assay: Western blot of FLT3 signaling in MOLM13^FLT3-ITD cells; type: cell-based; settings: 1 h, read-out: FLT3 IC50 estimated from loss of FLT3-ITD phosphorylation
[22] = target: CSF1R (Homo sapiens, UniProt P07333); assay: Kd determination; type: binding
[23] = In vivo pharmacokinetic study; parameters: species or system mouse
[24] = system: MV4-11 cells; assay: MV4-11 cell proliferation; type: cell-based
[25] = Plasma stability; type: in vitro ADME; settings: human
[26] = target: TYK2 (JH1 domain-catalytic) (Homo sapiens, UniProt P29597); assay: Kd determination; type: binding
[27] = target: JAK2 (JH1 domain-catalytic) (Homo sapiens, UniProt O60674); assay: Kd determination; type: binding
[28] = Plasma stability; type: in vitro ADME; settings: rat
[29] = female, C57BL/6, mouse, plasma, ip, 3 mg/kg
[30] = female, C57BL/6, mouse, plasma, ip, 5 mg/kg
[31] = female, C57BL/6, mouse, plasma, ip, 10 mg/kg

CLK4, sequence (Q9HAZ1 whole entry): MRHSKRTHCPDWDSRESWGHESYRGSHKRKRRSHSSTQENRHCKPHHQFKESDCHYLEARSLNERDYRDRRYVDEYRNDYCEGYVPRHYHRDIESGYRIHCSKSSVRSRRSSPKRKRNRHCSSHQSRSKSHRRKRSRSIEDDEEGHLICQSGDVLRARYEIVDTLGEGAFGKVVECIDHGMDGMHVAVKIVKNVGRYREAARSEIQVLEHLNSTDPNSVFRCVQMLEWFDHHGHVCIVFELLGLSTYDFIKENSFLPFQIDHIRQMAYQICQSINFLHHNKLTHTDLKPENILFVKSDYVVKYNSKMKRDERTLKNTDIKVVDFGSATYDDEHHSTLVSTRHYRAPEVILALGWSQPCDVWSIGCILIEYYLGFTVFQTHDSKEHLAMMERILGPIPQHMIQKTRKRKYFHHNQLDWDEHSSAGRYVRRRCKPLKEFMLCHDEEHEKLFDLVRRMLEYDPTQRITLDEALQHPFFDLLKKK
PIK4CB, sequence (Q9UBF8 whole entry): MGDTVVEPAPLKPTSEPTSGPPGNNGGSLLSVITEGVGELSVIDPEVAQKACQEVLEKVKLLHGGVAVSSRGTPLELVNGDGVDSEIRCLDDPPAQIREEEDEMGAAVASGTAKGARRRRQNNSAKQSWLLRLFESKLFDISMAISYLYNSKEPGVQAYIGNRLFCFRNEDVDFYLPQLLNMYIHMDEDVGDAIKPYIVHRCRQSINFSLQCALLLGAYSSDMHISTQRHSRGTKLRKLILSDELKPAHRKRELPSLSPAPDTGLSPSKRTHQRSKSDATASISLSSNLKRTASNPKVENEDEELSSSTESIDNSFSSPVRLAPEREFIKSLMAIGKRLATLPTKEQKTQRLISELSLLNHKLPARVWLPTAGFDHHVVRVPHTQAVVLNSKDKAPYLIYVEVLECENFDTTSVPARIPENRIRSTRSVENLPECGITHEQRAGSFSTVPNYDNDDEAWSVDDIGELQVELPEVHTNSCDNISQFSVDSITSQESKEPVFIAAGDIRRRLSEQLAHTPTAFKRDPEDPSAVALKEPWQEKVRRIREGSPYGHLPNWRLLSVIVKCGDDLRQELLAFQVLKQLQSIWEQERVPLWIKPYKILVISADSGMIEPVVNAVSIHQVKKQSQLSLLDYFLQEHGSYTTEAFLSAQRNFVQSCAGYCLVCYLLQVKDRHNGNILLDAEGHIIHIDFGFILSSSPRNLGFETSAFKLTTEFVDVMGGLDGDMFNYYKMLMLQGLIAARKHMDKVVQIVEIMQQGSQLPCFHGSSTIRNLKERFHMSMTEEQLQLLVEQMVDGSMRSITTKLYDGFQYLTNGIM
PDGFRB, sequence (P09619 33-1106): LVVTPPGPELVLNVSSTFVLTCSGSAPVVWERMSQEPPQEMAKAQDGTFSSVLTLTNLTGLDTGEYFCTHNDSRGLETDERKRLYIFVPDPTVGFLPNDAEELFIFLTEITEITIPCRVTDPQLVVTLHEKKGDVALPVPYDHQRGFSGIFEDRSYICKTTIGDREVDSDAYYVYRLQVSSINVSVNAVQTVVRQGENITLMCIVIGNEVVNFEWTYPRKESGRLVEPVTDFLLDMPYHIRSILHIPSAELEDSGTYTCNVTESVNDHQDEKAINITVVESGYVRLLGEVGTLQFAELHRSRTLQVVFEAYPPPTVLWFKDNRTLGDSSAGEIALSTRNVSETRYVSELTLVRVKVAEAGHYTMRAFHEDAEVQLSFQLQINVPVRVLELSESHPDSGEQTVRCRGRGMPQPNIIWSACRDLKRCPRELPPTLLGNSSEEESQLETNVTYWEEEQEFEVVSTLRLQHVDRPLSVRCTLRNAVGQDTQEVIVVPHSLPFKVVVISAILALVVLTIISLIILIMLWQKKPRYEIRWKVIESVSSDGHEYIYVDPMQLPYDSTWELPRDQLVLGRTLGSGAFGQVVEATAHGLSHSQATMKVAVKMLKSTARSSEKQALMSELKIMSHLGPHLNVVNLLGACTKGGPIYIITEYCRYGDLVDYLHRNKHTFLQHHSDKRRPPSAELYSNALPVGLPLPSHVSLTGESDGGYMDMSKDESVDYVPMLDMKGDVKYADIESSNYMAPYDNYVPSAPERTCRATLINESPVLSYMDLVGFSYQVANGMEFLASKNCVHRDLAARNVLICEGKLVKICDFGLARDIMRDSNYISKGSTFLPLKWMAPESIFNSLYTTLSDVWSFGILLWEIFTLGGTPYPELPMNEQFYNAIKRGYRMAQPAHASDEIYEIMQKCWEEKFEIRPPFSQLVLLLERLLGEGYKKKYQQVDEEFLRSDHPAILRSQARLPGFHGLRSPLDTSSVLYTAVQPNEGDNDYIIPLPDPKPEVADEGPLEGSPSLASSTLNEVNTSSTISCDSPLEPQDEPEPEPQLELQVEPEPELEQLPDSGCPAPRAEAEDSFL
NEK10, sequence (Q6ZWH5 whole entry): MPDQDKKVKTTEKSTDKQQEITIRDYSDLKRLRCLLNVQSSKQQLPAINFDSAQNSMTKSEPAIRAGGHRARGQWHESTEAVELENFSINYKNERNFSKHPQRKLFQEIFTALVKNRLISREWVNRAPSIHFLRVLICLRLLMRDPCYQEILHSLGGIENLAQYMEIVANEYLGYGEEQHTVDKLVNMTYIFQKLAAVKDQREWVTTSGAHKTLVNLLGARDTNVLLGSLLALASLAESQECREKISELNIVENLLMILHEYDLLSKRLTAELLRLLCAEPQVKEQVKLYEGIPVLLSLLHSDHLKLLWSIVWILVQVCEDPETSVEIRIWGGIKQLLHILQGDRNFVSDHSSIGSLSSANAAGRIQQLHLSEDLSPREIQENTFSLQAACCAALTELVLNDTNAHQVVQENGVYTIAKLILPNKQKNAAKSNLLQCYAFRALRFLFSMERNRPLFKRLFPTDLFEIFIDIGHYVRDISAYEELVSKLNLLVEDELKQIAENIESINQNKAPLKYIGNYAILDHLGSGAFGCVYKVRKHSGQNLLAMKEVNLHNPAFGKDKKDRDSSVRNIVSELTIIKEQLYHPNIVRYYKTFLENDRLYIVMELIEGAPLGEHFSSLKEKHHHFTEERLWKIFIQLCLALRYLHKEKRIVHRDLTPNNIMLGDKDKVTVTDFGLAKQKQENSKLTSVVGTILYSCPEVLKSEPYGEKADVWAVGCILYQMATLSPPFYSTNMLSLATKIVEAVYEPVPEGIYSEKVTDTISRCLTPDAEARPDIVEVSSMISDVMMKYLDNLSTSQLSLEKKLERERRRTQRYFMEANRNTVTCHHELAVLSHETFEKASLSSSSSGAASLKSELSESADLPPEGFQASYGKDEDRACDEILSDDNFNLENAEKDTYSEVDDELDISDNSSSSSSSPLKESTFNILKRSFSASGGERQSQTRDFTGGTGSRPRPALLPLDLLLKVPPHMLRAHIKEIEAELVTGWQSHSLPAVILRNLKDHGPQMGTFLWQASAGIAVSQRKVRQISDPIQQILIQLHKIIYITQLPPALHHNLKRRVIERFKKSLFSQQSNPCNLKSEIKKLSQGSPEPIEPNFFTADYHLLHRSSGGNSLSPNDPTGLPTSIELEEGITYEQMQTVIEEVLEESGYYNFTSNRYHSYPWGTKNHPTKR
PIP5K1C, sequence (O60331 whole entry): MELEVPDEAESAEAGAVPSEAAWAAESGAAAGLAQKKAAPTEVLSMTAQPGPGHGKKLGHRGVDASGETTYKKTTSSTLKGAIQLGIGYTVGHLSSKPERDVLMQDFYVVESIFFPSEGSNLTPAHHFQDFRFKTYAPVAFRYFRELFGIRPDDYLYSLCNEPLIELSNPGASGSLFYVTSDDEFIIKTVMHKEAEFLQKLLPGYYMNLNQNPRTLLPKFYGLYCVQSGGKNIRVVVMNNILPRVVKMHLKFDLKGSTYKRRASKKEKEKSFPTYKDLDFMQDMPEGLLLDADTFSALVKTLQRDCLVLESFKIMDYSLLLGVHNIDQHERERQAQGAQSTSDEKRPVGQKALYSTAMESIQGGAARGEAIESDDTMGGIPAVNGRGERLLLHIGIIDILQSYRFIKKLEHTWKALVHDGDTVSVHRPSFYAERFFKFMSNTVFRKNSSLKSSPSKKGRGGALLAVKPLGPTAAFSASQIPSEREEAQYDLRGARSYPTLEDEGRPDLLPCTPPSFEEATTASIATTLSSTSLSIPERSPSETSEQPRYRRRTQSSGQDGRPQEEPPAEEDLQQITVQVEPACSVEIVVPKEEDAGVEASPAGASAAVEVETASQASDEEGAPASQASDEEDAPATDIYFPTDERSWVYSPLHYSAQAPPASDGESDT
CLK1, sequence (P49759 whole entry): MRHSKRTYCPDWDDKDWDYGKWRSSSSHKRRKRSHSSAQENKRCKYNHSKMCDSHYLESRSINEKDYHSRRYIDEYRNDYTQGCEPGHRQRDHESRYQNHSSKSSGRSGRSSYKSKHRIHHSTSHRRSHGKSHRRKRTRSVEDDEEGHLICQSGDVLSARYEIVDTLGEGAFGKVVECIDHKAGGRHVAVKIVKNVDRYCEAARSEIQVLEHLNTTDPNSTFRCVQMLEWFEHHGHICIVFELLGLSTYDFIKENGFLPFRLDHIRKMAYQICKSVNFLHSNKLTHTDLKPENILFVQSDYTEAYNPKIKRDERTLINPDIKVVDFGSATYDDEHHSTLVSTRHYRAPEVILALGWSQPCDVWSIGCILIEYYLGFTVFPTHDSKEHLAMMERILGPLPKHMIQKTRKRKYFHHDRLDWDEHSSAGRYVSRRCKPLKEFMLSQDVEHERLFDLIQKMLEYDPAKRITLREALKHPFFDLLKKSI
JAK2 (JH1 domain-catalytic), sequence (O60674 849-1124 limits assumed): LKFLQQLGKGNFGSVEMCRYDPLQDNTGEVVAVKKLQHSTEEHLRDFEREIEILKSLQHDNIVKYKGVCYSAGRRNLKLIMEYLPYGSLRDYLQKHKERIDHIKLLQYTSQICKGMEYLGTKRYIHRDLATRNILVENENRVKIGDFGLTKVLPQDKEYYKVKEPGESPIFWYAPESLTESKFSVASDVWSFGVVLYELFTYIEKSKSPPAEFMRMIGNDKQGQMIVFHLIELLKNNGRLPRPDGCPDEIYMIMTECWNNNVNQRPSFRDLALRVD

Kd [1]: 7.2 nM
CLint scaled at 4 µM [2]: 26.6 ± 2.2 mL/min/kg
half-life at 4 µM [2]: 48 ± 6 min
Kd [3]: 2700 nM
solubility at 18 h [4]: 0.4 ± 0.9 µM (≈ 0.138 µg/mL)
Kd [5]: 610 nM
Kd [6]: 2800 nM
Kd [7]: 370 nM
CLint scaled at 4 µM [8]: 26.5 ± 1.6 mL/min/kg
half-life at 4 µM [8]: 15.6 ± 1.8 min
Kd [9]: 430 nM
Kd [10]: 2900 nM
CLint scaled at 4 µM [11]: 44.9 ± 1.4 mL/min/kg
half-life at 4 µM [11]: 62.4 ± 1.8 min
Kd [12]: 1500 nM
Kd [13]: 270 nM
Kd [14]: 120 nM
Kd [15]: 690 nM
Kd [16]: 1500 nM
Kd [17]: 2500 nM
Kd [18]: 410 nM
CLint scaled at 4 µM [19]: 49.4 ± 3.9 mL/min/kg
half-life at 4 µM [19]: 42 ± 6 min
Kd [20]: > 10000 nM
SMILES: c1cncc(-c2cccc(Nc3nccc(NC4CCCCC4)n3)c2)c1 [Compound 1, N^4-Cyclohexyl-N^2-(3-(pyridin-3-yl)phenyl)pyrimidine-2,4-diamine]

Kd [1]: 0.36 nM
CLint scaled at 4 µM [2]: 10 ± 0.6 mL/min/kg
half-life at 4 µM [2]: 126 ± 6 min
solubility at 18 h [4]: 26.4 ± 17 µM (≈ 8.06 µg/mL)
Kd [5]: 1300 nM
IC50 [21]: 50 to 100 nM
Kd [22]: 460 nM
Kd [7]: 330 nM
AUC [23, 29]: 0.183 µM·h
Tmax [23, 29]: 4.98 min
Cmax ([23]; female, C57BL/6, mouse, plasma, ip, 3 mg/kg, Cmax, mice): 327 nM
half-life ([23]; female, C57BL/6, mouse, plasma, ip, 3 mg/kg, T1/2, mice): 13.8 min
AUC [23, 30]: 0.683 µM·h
Tmax [23, 30]: 4.98 min
Cmax ([23]; female, C57BL/6, mouse, plasma, ip, 5 mg/kg, Cmax, mice): 927 nM
half-life ([23]; female, C57BL/6, mouse, plasma, ip, 5 mg/kg, T1/2, mice): 32.4 min
AUC [23, 31]: 0.953 µM·h
Tmax [23, 31]: 15 min
Cmax ([23]; female, C57BL/6, mouse, plasma, ip, 10 mg/kg, Cmax, mice): 1620 nM
half-life ([23]; female, C57BL/6, mouse, plasma, ip, 10 mg/kg, T1/2, mice): 60 min
half-life ([23]; female, C57BL/6, mouse, plasma, ip, 10 mg/kg, half-life, mice, across 3, 5 and 10 mg/kg): 13.8 to 60 min
Cl ([23]; mice, i.p., 3 mg/kg): 845 mL/min/kg
Cmax ([23]; mice, i.p., 3 mg/kg): 376 nM
Vz ([23]; mice, i.p., 3 mg/kg): 16.7 L/kg
Cl ([23]; mice, i.p., 5 mg/kg): 397 mL/min/kg
Vz ([23]; mice, i.p., 5 mg/kg): 18.6 L/kg
Cl ([23]; mice, i.p., 10 mg/kg): 552 mL/min/kg
Cmax ([23]; mice, i.p., 10 mg/kg): 1650 nM
Vz ([23]; mice, i.p., 10 mg/kg): 47.3 L/kg
CLint scaled at 4 µM [8]: 180 ± 19.4 mL/min/kg
half-life [8]: 12 to 60 min
half-life at 4 µM [8]: 18 ± 1.8 min
Kd [9]: 260 nM
CLint scaled at 4 µM [11]: 41.7 ± 2.7 mL/min/kg
half-life at 4 µM [11]: 66 ± 6 min
Kd [13]: 11 nM
plasma stability [25]: >48 h
Kd [14]: 28 nM
Kd [26]: 740 nM
Kd [27]: 480 nM
Kd [15]: 1100 nM
Kd [18]: 2000 nM
CLint scaled at 4 µM [19]: 28.2 ± 1.9 mL/min/kg
half-life at 4 µM [19]: 72 ± 6 min
plasma stability [28]: >48 h
SMILES: CC(C)Nc1ccnc(Nc2cccc(-c3cccnc3)c2)n1 [Compound 5e, N^4-Isopropyl-N^2-(3-(pyridin-3-yl)phenyl)pyrimidine-2,4-diamine]
fold improvement in MV4-11 growth inhibition relative to 1 [24]: approximately 10 fold

Kd [1]: > 10000 nM
Kd [13]: > 10000 nM
SMILES: CC(C)Nc1ccnc(Nc2ccccc2-c2ccccc2)n1 [Compound 6a, N^2-([1,1′-Biphenyl]-2-yl)-N^4-isopropylpyrimidine-2,4-diamine]
